Where two headings read alike, the source gives them in different places.
Legend:
p-ERK in KYSE-520 cells = test: Determination of p-ERK in KYSE-520 cells (HTRF); format: cell-based; settings: Homo sapiens
hERG potassium channel = target: T1, hERG potassium channel (Homo sapiens, UniProt Q12809); test: hERG current inhibition experiment (manual patch clamp, CHO hERG cells); format: cell-based; settings: whole-cell patch clamp, tail current
T1 construct: host or cells: CHO hERG cells
Method: In this experiment, whole-cell current recording was performed using a manual patch clamp system (HEKA EPC-10 signal amplification and digital conversion system, purchased from HEKA Electronic, Germany). The round glass slide of which surface CHO hERG cells (provided by Sophion Bioscience Inc., Denmark, the cell generation number was P21) were grown on was placed in an electrophysiological recording slot under an inverted microscope. The recording slot was continuously perfused with extracellular fluid (approximately 1 mL per minute). Conventional whole-cell patch clamp current recording technique was used in the experiment. The experiments were performed at normal room temperature (˜25° C.). The cells were clamped at a voltage of −80 mV. Cell patch clamp voltage was depolarized to +20 mV to activate hERG potassium channel, and to −50 mV after 5 seconds to eliminate inactivation and generate tail currents. The tail current peak was used as a value of hERG current. When the hERG potassium current recorded in the above steps became steady under continuous perfusion of the extracellular fluid in the recording slot, the drug to be tested could be added to the perfusion, until the inhibition effect of the drug on hERG current reached a steady state. Generally, the overlapping of most recent three consecutive current recording lines was used as a criterion to determine whether the state was stable. After reaching the steady state, the recording slot was perfused with extracellular fluid until the hERG current returned to the value before the drug adding. The test data was analyzed by HEKA Patchmaster (V2x73.2), Microsoft Excel and the data analysis software provided by Graphpad Prism 5.0.

SHP2 E69K = target: T2, SHP2 E69K (Homo sapiens, UniProt Q06124, E69K); test: In vitro activity on SHP2 mutant E69K phosphatase; format: biochemical
T2 construct: recombinantly expressed full-length SHP2 (aa 1-593) with E69K and E76K; purchased Novoprotein Scientific Inc
T2 sequence (Q06124 1-593 E69K): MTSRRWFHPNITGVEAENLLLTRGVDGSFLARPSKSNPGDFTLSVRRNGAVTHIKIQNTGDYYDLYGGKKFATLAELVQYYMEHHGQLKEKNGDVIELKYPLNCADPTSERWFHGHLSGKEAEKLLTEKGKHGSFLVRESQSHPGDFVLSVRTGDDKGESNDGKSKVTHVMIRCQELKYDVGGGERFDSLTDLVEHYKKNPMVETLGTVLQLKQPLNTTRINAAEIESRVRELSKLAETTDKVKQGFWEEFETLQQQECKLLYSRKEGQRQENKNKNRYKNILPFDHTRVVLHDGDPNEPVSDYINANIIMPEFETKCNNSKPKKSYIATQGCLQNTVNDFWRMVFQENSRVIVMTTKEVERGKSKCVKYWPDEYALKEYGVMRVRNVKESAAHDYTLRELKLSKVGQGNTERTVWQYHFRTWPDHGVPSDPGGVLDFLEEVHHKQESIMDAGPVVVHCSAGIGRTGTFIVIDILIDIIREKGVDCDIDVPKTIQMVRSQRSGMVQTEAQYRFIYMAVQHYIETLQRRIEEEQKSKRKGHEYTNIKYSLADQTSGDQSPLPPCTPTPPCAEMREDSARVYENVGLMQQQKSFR
Method: The reaction solution was shaked (350 rpm) at room temperature for 30 minutes. The reaction substrate DiFMUP with a final concentration of 30 μM was added, and the reaction solution was reacted at room temperature for 30 minutes. The phosphatase reaction was stopped by adding 5 μL of stop solution (60 mM HEPES, pH 7.5, 0.2% SDS).

T1 sequence (Q12809 whole entry): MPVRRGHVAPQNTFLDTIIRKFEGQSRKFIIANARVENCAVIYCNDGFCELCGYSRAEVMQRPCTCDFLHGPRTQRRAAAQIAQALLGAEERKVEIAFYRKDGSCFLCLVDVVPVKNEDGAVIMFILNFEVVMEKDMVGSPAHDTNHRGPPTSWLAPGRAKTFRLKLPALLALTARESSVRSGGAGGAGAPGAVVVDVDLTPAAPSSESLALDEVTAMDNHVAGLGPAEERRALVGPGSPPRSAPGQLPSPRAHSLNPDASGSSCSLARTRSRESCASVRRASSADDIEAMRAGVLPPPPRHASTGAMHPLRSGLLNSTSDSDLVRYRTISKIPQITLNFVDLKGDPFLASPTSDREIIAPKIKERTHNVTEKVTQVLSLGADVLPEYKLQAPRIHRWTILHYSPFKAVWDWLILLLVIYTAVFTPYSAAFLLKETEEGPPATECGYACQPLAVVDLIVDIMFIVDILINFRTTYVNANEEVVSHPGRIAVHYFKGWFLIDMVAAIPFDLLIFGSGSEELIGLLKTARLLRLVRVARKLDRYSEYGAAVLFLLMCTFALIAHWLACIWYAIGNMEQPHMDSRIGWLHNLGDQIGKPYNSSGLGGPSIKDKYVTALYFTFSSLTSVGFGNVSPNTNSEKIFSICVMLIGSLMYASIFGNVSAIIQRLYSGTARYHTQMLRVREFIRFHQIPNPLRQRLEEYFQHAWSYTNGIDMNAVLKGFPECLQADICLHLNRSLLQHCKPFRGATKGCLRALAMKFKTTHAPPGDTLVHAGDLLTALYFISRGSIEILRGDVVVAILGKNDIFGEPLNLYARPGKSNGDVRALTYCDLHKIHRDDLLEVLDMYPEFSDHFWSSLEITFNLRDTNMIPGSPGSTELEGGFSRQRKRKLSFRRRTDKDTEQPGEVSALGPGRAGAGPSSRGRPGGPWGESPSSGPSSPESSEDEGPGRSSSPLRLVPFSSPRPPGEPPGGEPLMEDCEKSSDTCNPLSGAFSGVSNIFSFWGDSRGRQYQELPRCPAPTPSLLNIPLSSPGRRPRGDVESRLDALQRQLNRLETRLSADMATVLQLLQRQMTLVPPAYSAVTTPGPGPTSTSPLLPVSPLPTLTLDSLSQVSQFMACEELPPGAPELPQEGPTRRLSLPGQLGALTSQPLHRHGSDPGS

| IC50 (p-ERK in KYSE-520 cells; KYSE-520, 2 h) [nM] | IC50 (SHP2 E69K; activated polypeptide IRS1 added, read-out: SHP2 E69K the activated polypeptide was added IC50) [nM] | IC50 (SHP2 E69K; activated polypeptide not added, read-out: SHP2 E69K the activated polypeptide was not added IC50) [nM] | Structure (SMILES) | IC50 (p-ERK in KYSE-520 cells; 2 hours) [nM] | IC50 (hERG potassium channel) [nM] | IC50 (SHP2 E69K; SHP2 E69K the activated polypeptide was added IC50, activated polypeptide IRS1 added) [nM] | IC50 (SHP2 E69K; SHP2 E69K the activated polypeptide was not added IC50, activated polypeptide not added) [nM] |
| --- | --- | --- | --- | --- | --- | --- | --- |
| – | – | – | CNc1nccc(Sc2c(C)nc(N3CCC4(CC3)Cc3ncccc3[C@H]4N)n3ccnc23)c1Cl [Example 41, (S)-1′-(8-((3-Chloro-2-(methylamino)pyridin-4-yl)thio)-7-methylimidazo[1,2-c]pyrimidin-5-yl)-5,7-dihydrospiro[cyclopenta[b]pyridine-6,4′-piperidin]-5-amine] | 14 | 10200 | 8.5 | 0.91 |
| 4.8 | 7.1 | 0.78 | CNc1nccc(Sc2cnc(N3CCC4(CC3)Cc3ncccc3[C@H]4N)n3ccnc23)c1Cl [Example 43, (S)-1′-(8-((3-Chloro-2-(methylamino)pyridin-4-yl)thio)imidazo[1,2-c]pyrimidin-5-yl)-5,7-dihydrospiro[cyclopenta[b]pyridine-6,4′-piperidin]-5-amine] | – | 10300 | – | – |
